Experimental data taken from US20250066423A1, “SESTRIN-MAPK COMPLEX INHIBITORS” (Sentcell Ltd, priority 2021, published 2025).
Peptide text beside a SMILES is read from it.

How the values were obtained:
[1] = system: sMAC signalling (sestrin 1, 2 and 3 expression, AMPK and MAPK phosphorylation); test: Immunoblot of sMAC signalling in CD4+ T cells treated with DOS compounds (heat-map); format: cell-based, human
Protocol: CD4+ T cells were isolated from PBMCs from healthy donors, treated with DOS compounds for 4 hours and harvested for immunoblot analysis. The heat-map of Sestrin 1, Sestrin 2, Sestrin 3, p-mTOR1, p-JNK, p-AMPK, p-ERK1/2, and p-p38, represents the mean of three to nine experiments. Histone 3 was used as a control.
• 1. CD4+ cells were separated from PBMC using appropriate microbeads kit (Miltenyi) • 2. Cells were resuspended in whole RPMI medium and plated in the 24-multiwell plate • 3. Then activated for 4 hrs with DOS compounds • 4. Cells were then harvested, washed with PBS and resuspended in lysis buffer (RIPA with […]) • 5. The cell-lysis mix was incubated for 20 mins on ice • 6. Samples were centrifuged for 20 mins at the max speed • 7. The supernatant was collected and Lemmli buffer+β-Mercaptoethanol was added • 8. Samples were then boiled for 5 mins at 95° C. • 9. Samples were loaded on the polyacrylamide gel and left to run in TRIS-Glycine-SDS running buffer • 10. Once the run was completed the proteins were transferred from the gel to the nitrocellulose membrane by using the Trans-Blot machine (Biorad) • 11. Membrane was washed with 0.1% Tween-TBS buffer and blocked in 5% non-fat milk for 1 hr • 12. Followed incubation with the primary antibody o.n. • 13. The day after, the membrane was washed with 0.1% Tween-TBS buffer for three times for at least 30 mins each • 14. Secondary antibody was then added for 1h • 15. The membrane was the washed with 0.1% Tween-TBS buffer for three times for at least 30 mins each • 16. The signal was developed using ECL solution
This was shown by downregulation of sestrin 1, 2 and 3 expression, and AMPK and MAPK phosphorylation.

[2] = system: sMAC activation (Sestrin 2, p-p38); test: Titration of DOS46L in senescent CD4+ CD27− CD28− T cells, immunoblot; format: cell-based, human; conditions: within 4 hours of treatment
Protocol: FIG. 7 illustrates titration of DOS46L. (A-B) CD4+ CD27− CD28− T cells were isolated from PBMCs from healthy donors and treated with increasing doses of DOS46L compound for 4 hours and harvested for immunoblot analysis. (A) Levels of Sestrin 2, p-p38 and H2B were evaluated by immunoblot. (B) Quantification of Sestrin 2 was analysed with Histone 3 as a loading control. Represented are the mean values±SEM of at least three independent experiments. Values are compared using One-Way ANOVA test followed by Tukey's post hoc test. (C-D) CD4+ CD27−CD28− T cells were treated with DOS46L compound (10 uM) for 0.5, 1, 2 and 4 hours and harvested for immunoblot analysis at indicated time points. (C) Levels of Sestrin 1, Sestrin 2, and Sestrin 3 were evaluated by immunoblot. Histone 3 was used as a loading control. (D) Quantification of Sestrin 1, Sestrin 2 and Sestrin 3, with Histone 3 as a loading control. Represented are the mean values±SEM of at least four independent experiments. Values are compared using One-Way ANOVA test followed by Tukey's post hoc test or Student's T-test. *p<0.05, **p<0.01
• 1. CD4+ cells were separated from PBMC using appropriate microbeads kit (Miltenyi) • 2. Cells were resuspended in whole RPMI medium and plated in the 24-multiwell plate • 3. Then activated for 4 hrs with DOS compounds • 4. […]

[3] = system: PBMCs from elderly donors, heat-inactivated SARS-COV2; test: COVID-specific antibodies in PBMCs from elderly donors (ELISA); format: cell-based, human; conditions: PBMCs from elderly donors (75-95 years), 10 uM
[4] = system: H1N1 PR8/54; set-up: species or system mice; conditions: mouse, in vivo
[5] = system: CD95+ CD62L+ CD44− CD4+ memory T cells; format: in vivo, mice; conditions: examined up to 8 weeks
[6] = system: Breast cancer cell line (MCF-7); test: Cancer cell death by FACS live-dead staining; format: cell-based; conditions: 20 uM, 48 hours
Protocol: (§1) (Left) Immortalized paediatric neuroblastoma cell line (sh-sy5y) was treated at different concentrations of DOS46L and DOS144D (from 1 uM to 20 uM) for 48 hours, then analysed by FACS with live-dead staining. (Right) Breast cancer cell line (MCF-7) was treated at the fixed concentration of DOS46L and DOS144D (20 uM) for 48 hours, then analysed by FACS with live-dead dye staining. UN depicts untreated controls. Results of triplicate cultures are shown.

[7] = system: paediatric neuroblastoma cell line (sh-sy5y); test: Cancer cell death by FACS live-dead staining; format: cell-based; conditions: 1 uM to 20 uM, 48 hours
Protocol: as §1

[8] = system: telomere extension in T cells exposed to APCs; test: Telomere length quantification assay (qPCR); format: cell-based, human; conditions: 5 donors
Source text: FIG. 23 illustrates live transfer of telomeres from APC to T cells in the presence of DOS. (A, left): T cells showing baseline fluorescence in the channel of Tel C; (A, middle): T cells treated with DOS cultured with APC; (A, right): T cells co-cultured with APC, in the absence of DOS. DOS enhances telomere transfer by ˜2 fold. Representative of 3 experiments. (B): Telomere extension was quantified by qPCR. Synapse-driven telomere extension (Akb) in T cells exposed to APCs and treated with or without DOS46L. Results from 5 donors are shown. […] Mann-Whitney was used. *p<0.05.
• 1. CD4− and CD4+ cells were purified from PBMC using appropriate microbead kit (Miltenyi) • 2. CD4+ cells were then used to purify CD27− and CD28− cells by using Miltenyi purification kits. • 3. A pellet of CD4− and CD4+/CD27−/CD28− cells were frozen. • 4. 4*10^6 CD4− were mixed with 1*10^6 CD4+/CD27−/CD28− cells in presence or not of DOS 46L 10 μM. • 14. The mixed cells were stimulated o.n. with a mix 1:1 of CMV and EBV • 15. The day after, CD4− cells were detached from conjugates with CD4+/CD27−/CD28− cells with a syringe by using cold PBS • 5. CD4− were then purified from CD4+ cells by using Miltenyi purification kits. • 16. CD4− and CD4+ cell pellets post conjugate were then frozen. • 17.

CC[C@H](C)[C@@H]1NC(=O)[C@H](Cc2ccccc2)NC(=O)[C@H](C)NC(=O)[C@H](C(C)C)NC(=O)[C@@H]2CCCN2C1=O [DOS46L] (cyclo(AFIPV))
effectiveness at sMAC inactivation among all of the DOS compounds tested [1]: most effective | sMAC pathway silenced [1]: 90% | sestrins inhibited (pan or selective inhibitor) ([1]; CD4+ T cells, 4 hours, FIG. 5 heat-map): inhibit all three sestrins | concentration from which sMAC activation is suppressed [2]: 16 nM | COVID-specific IgG antibodies [3]: stimulation of COVID-specific antibodies | protection from lethal viral challenge without vaccine [4]: prevented death | stem-like memory T cell generation [5]: permanent stem-like generation | cancer cell death [6]: induction of cancer cell death | cancer cell death [7]: induction of cancer cell death | synapse-driven telomere extension [8]: restoration in telomere length is similar to the extension observed in young T cells
